For one test, the system named is EAT. Nature of the test: Cytotoxicity against mouse EAT cells assessed as decrease in cell viability at 50 uM by trypan blue dye exclusion assay. The test is classed as functional, cell-based. The conditions noted are these: TDE = time-dependent effect.
The test system of test [1] is MDA-MB-231. Nature of the test: Cytotoxicity against human MDA-MB-231 cells assessed as decrease in cell viability at 2 to 200 uM after 16 hrs by MTT assay. It counts as functional, cell-based. A general note: Tetrazolium assays rely on reduction of a dye to a coloured formazan, in cell work by metabolically active cells.
Test [2] can be described thus: Cytotoxicity against mouse EAT cells assessed as cell death at 50 uM after 16 hrs by trypan blue dye exclusion assay relative to control. The test is classed as functional.
Test [3] is described as follows: Induction of apoptosis in mouse EAT cells assessed as early apoptotic cells with membrane blebbing and condensed nuclei at 50 uM after 16 hrs by acridine orange/ethidium bromide staining-based fluorescence microscopic method relative to control. The test is classed as functional.
Test [4] relates to MDA-MB-231. Nature of the test: Cytotoxicity against human MDA-MB-231 cells assessed as decrease in cell viability after 16 hrs by MTT assay. It counts as functional, cell-based. Conditions: MDA-MB-231, 16 h.

Consider nine compounds from ChEMBL document CHEMBL4002560, “Synthesis and biological evaluation of novel isoxazolines linked via piperazine to 2- benzoisothiazoles as potent apoptotic agents” (Eur J Med Chem, 2017).

Calls of active or inactive are those of the source. No cut-off for these calls is given here.

On to `c1ccc(COc2ccc(C3=NOC(CN4CCN(c5nsc6ccccc56)CC4)C3)cc2)cc1` (stereo unspecified), for which the Activity result in the test on EAT was “Tde”; in test [2], 45.6%; in test [3], 59%. Also, the result in the test with MDA-MB-231 [1] was Active.
Usually IC50 stands for the midpoint of a concentration-inhibition curve. For `Clc1ccc(C2=NOC(CN3CCN(c4nsc5ccccc45)CC3)C2)cc1` (stereo unspecified), the results for the Activity result (in the test on EAT; in test [3]) were “Tde” and 61.3%, respectively. For the same compound, the half-inhibitory concentration (IC50) in the test on MDA-MB-231 [4] was 75 µM.
Take `COc1ccc(C2=NOC(CN3CCN(c4nsc5ccccc45)CC3)C2)cc1OCc1ccccc1` (stereo unspecified): the values for the Activity entry (in the test with EAT; in test [2]; in test [3]) were “Tde”, 44.6% and 50%, respectively. In the test with MDA-MB-231 [4], the IC50 amounted to 95 µM.
For `COc1cc(C2=NOC(CN3CCN(c4nsc5ccccc45)CC3)C2)cc(OC)c1OC` (stereo unspecified), the Activity result in the test on EAT was “Tde”. The outcome in the test with MDA-MB-231 [1] was inactive.
For `c1ccc(C2=NOC(CN3CCN(c4nsc5ccccc45)CC3)C2)cc1` (stereo unspecified), the Activity entry with EAT is “Tde”; in test [2] it was 50%. For the same compound, the result in the test on MDA-MB-231 [1] was inactive.
`Fc1ccc(C2=NOC(CN3CCN(c4nsc5ccccc45)CC3)C2)cc1` (stereo unspecified): in the test with EAT, the Activity result is “Tde”. Moreover, the result with MDA-MB-231 [1] was inactive.
The corresponding values for `COc1ccc(C2=NOC(CN3CCN(c4nsc5ccccc45)CC3)C2)cc1` (stereo unspecified) are “Tde” and “Active”.
As to `COc1cc(C2=NOC(CN3CCN(c4nsc5ccccc45)CC3)C2)ccc1OCc1ccccc1` (stereo unspecified), the Activity entry in the test on EAT was “Tde”; in test [2] it was 53%; in test [3] it was 67.3%. In addition, in the test with MDA-MB-231 [4], the IC50 is 30 µM.
As for `COc1ccc(C2=NOC(CN3CCN(c4nsc5ccccc45)CC3)C2)cc1OC` (stereo unspecified), the Activity entry with EAT is “Tde”. For the same compound, the outcome with MDA-MB-231 [1] was Active.
